The target in data set [1] is human CYP2C9 (Homo sapiens, UniProt P11712). To be noted: read-out: IC50 CYP2C9; recombinant human CYP2C9 15 nM, 150 μM MFC, 45 min, 37°C; mean (95% confidence interval).
In data set [2] the target is human CYP2C19 (Homo sapiens, UniProt P33261). To be noted: read-out: IC50 CYP2C19; recombinant human CYP2C19 7.5 nM, 25 μM CEC, 30 min, 37°C; mean (95% confidence interval).
The target of data set [3] is CYP2B6 (Homo sapiens, UniProt P20813). As to conditions: concentrations up to 10 μM; pooled HLMs, 100 μM bupropion; data not shown.

From publication PMC3252466 (Chirality, 2011) come the findings set out here.

Sequence of human CYP2C9 (P11712 whole entry): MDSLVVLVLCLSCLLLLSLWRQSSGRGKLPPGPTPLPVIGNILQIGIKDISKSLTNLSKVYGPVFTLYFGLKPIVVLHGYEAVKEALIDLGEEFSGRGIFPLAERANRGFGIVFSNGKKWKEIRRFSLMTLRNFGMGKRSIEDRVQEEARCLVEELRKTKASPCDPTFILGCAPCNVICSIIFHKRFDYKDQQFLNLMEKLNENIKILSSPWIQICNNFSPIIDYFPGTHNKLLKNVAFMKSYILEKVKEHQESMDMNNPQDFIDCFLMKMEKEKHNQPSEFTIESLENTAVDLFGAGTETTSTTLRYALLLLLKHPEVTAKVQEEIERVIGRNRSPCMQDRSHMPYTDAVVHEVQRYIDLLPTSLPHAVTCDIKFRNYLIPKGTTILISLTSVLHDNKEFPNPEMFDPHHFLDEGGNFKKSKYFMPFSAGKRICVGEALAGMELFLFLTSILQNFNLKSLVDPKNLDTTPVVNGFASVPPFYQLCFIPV
Sequence of human CYP2C19 (P33261 whole entry): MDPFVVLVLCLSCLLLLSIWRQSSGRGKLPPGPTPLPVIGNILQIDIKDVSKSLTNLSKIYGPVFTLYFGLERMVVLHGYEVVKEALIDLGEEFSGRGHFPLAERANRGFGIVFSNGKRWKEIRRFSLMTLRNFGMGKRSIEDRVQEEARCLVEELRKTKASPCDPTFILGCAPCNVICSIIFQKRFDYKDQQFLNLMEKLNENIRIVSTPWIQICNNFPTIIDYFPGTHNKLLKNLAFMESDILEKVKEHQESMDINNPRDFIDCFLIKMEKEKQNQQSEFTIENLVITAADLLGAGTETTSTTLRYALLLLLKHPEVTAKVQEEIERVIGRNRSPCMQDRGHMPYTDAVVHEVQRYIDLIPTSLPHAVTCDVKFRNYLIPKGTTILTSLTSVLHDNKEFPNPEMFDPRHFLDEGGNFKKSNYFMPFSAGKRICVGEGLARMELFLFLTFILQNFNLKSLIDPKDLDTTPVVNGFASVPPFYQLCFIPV
Sequence of CYP2B6 (P20813 whole entry): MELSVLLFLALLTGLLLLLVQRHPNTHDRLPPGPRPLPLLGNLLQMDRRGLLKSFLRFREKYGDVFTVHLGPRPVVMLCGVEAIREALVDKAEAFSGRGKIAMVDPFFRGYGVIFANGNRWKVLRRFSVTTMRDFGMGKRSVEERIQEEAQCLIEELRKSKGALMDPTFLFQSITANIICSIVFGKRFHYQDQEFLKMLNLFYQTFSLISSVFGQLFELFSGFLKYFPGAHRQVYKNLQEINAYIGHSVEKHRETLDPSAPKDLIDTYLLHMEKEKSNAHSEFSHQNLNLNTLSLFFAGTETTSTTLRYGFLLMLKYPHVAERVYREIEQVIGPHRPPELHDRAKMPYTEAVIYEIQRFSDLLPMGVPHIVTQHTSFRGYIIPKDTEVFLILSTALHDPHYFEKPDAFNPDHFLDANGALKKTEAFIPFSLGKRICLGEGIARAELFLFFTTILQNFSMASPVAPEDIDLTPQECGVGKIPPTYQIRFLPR

In the case of `O=C1C[C@H](c2ccc(O)cc2)Oc2cc(O)cc(O)c21` [(R)-naringenin], the half-maximal inhibitory concentration (IC50) in data set [1] is 1600 nM; in data set [2] it was 4900 nM.

`O=C1C[C@@H](c2ccc(O)cc2)Oc2cc(O)cc(O)c21` [(S)-naringenin]: the results for the IC50 in data set [1] and in data set [2] were 3400 nM and 1200 nM, respectively.

naringenin [rac-naringenin]: the “Inhibition of CYP2B6” value in data set [3] is “No appreciable inhibition”.
